Literature values as cited in US20070281983A1, “Creatine analog prodrugs, compositions and uses thereof” (XenoPort, Inc., priority 2006, published 2007).
Where two headings read alike, the source gives them in different places.

Experiments:
[1] = animals, diet containing up to 1% cyclocreatine
[2] = healthy volunteers, oral creatine administration
[3] = not given; remark: listed apart in the source

In the case of `NC1=NCCN1CC(=O)O` [cyclocreatine], the adverse effects [1] is listed as “do not exhibit adverse effects”.

For `CN(CC(=O)O)C(=N)NP(=O)(O)O` [creatine phosphate], the adverse side effects (patients with cardiac diseases, intravenous injection up to 8 gm/day) is given as “without adverse side effects”.

In the case of `CN(CC(=O)O)C(=N)N.O` [creatine monohydrate], the adverse side effects (athletes and body builders, 2-3 gm/day) is listed as “without adverse side effects”.

In the case of `CN(CC(=O)O)C(=N)N` [creatine, Creatine], the “increase in cerebral creatine phosphate” value [2] is listed as “about 10%”, the “overall increase in creatine phosphate levels” value ([3]; creatine supplementation, typically takes weeks) is listed as under 50% and the “duration of increases in tissue creatine phosphate levels” value ([3]; following oral creatine supplementation) is listed as over 14 days.
